Laboratory results published in patent publication US20040152733A1, “Duloxetine for treatment of hot flashes” (priority 2004, published 2004).

Assays:
[1] = test system: hot flashes; test: Randomized double-blind placebo controlled clinical trial of duloxetine for hot flashes (Example 1); conditions: Group 1: Duloxetine 60 mg QD + Placebo; eight to twelve weeks
Experimental: Patients eligible for a clinical trial include women who are either 1) naturally menopausal; or 2) pre-menopausal but had undergone bilateral oophorectomy surgery within four weeks prior to the commencement of the study. All the women in the study experience a minimum of thirty five hot flashes per week. […] The women or men are divided into two groups for a randomized double-blind placebo controlled study.
The groups receive drug or placebo as illustrated below:
Group 1: Duloxetine (60 mg QD)+Placebo
For three weeks both groups are administered placebo only. For eight to twelve weeks thereafter, each group is administered drug or placebo. Data is collected (numbers/severity of hot flashes experienced) from each participant during and at the end of the test period.

[2] = test system: hot flashes; conditions: menopausal women (survivors of breast cancer) suffering from hot flashes; versus only 20% with placebo; cited from earlier work

| SMILES | incidence of hot flashes relative to the placebo groups (Groups 2 and 3) [1] | treated menopausal women reporting a greater than 50% decrease in hot flash frequency [2] [%] |
| --- | --- | --- |
| CNCCC(Oc1cccc2ccccc12)c1cccs1 (centres unmarked) [duloxetine, N-methyl-3-(1-naphthalenyloxy)-3-(2-thienyl)propanamine] | decrease | – |
| COc1ccc(C(CN(C)C)C2(O)CCCCC2)cc1 (centres unmarked) [venlafaxine] | – | 45 |
